Results on two molecules are retold here after paper PMC11280475, “Investigation of Stabilized Amorphous Solid Dispersions to Improve Oral Olaparib Absorption” (Pharmaceutics, 2024).

Converted amounts (≈) assume the structure as drawn. Like-named read-outs stand apart in the source and are kept apart here.

What is called solubility (kinetic) is solubility judged after dilution from a stock solution rather than from solid. The term Cmax denotes the maximum level reached in the sampled fluid or tissue. For orientation: MRT means the average time that molecules of a dose stay in the body. The term Tmax denotes the time from dosing to the highest level. For orientation: half-life means the time needed for the level to fall by half in the phase considered. Read a low half-life as rapid decline.

A short description of series [1]: Saturation solubility of OLA in aqueous solutions. The series is classed as physicochemical. Particulars: pH 1.2, pH 4.0, pH 6.8, regardless of pH, 37 °C. How it is done: The solubility of OLA was evaluated in distilled water (D.W.), pH 1.2, pH 4.0, and pH 6.8 solutions. The pH 1.2 solution was prepared using 0.1 M hydrochloric acid and sodium chloride, while the pH 4.0 solution utilized a 0.05 M sodium acetate buffer solution, and the pH 6.8 solution was made by combining a 0.2 M potassium dihydrogen phosphate solution with a 0.2 M sodium hydroxide solution. To determine the saturation solubility, an excess amount of both crystalline OLA and amorphous OLA, totaling 10 mg each, was added to 1 mL of each solution. The mixtures were vortexed for 10 min and then shaken at 100 rpm in a 37 °C water bath for 72 h. After centrifugation at 13,500 rpm for 10 min, the supernatant was filtered through a 0.45 μm syringe filter to remove insoluble OLA. The resultant solution was diluted tenfold with the HPLC mobile phase, and the concentration of OLA in each solution was measured using the HPLC system mentioned in Section 2.2. Subsequently, to assess the kinetic solubility of OLA, a dissolution test was conducted using 150 mg of both crystalline and amorphous OLA in 900 mL of each aforementioned solution. […] Samples (3 mL) were taken at predetermined times (0.5, 1, 2, 3, 4, 6, 12 h), filtered through a 0.45 μm syringe filter, diluted tenfold with the HPLC mobile phase, and analyzed using the same HPLC system. […]

The nature of series [2]: Kinetic solubility of OLA in 1% (w/v) polymer solutions. In kind it is physicochemical. The note with it: thermodynamic from solid, amorphous OLA. How it is done: (§1) The polymers used to select the appropriate polymer for OLA-SD were chosen from those widely utilized in solid dispersions. To select the polymers for the solid dispersion system, the solubility of OLA in 1% (w/v) polymer solutions was assessed. Initially, 10 mg of crystalline OLA was added to 1 mL of each polymer solution, vortexed for 10 min, and then shaken at 100 rpm in a 37 °C water bath for 72 h. This process followed the saturation solubility evaluation method described in Section 2.3. Subsequently, to evaluate the kinetic solubility of OLA, both crystalline and amorphous forms, totaling 10 mg, were added to 10 mL of the selected polymer solutions, based on the results of the OLA saturation solubility tests. After vortexing for 10 min, the samples were shaken under the same conditions. During this 72 h period, samples were collected at predetermined intervals of 1, 6, 12, 24, 48, and 72 h, and the concentration of OLA was measured through HPLC analysis.

Series [3] in a line: In vitro dissolution test (USP apparatus II). Particulars: 300 mL, 37 °C, 50 rpm, 150 mg OLA equivalent. In kind it is physicochemical. The procedure:
To assess the in vitro release of OLA from the solid dispersions, a dissolution test was performed under conditions similar to those described in Section 2.3. Briefly, the dissolution media were adjusted to pH 1.2 and pH 6.8 (300 mL each), with the temperature maintained at 37 ± 0.5 °C, and the test was conducted at a paddle speed of 50 rpm. Each sample of the OLA-SD, equivalent to 150 mg of OLA, was immersed in the dissolution media. Additionally, to examine the effect of polymers in the solid dispersion, a parallel dissolution test was conducted with 150 mg each of crystalline OLA and amorphous OLA. As mentioned, the solution was sampled at predetermined times (1, 6, 12, 18, 24, 48, and 72 h) and the concentration of OLA was assessed using an HPLC system. Additionally, after the kinetic dissolution tests in the pH 1.2 solution, the solution was centrifuged, the supernatant was removed, and the remaining OLA-SD residue was dried overnight for 12 h. The crystallinity state of the dried OLA-SD was examined using an X-ray diffractometer. The detailed method is described in Section 2.6.3.

Series [4] is described as follows: In vivo pharmacokinetic study after oral administration. The note with it: rats, 20 mg/kg; for AUC(0-t): read-out: AUC0–24. Further details: species or system Sprague Dawley (SD) rats. How it is done: Male Sprague Dawley (SD) rats (age: 9–10 weeks, weight: 250 ± 20 g) for the in vivo pharmacokinetic study of OLA-SD were purchased from Koatech Co. (Pyeongtaek, Republic of Korea). The rats were acclimatized to standard laboratory conditions (average temperature of 25 ± 2 °C and a 12/12 h light/dark cycle) for one week before the experiment, with unrestricted access to food and drinking water ad libitum. The Institutional Animal Care and Use Committee (IACUC) of Gyeongsang National University (Approval No. GNU-240228-R0049) approved the animal study protocol in accordance with NIH policies and the Animal Welfare Act. The SD rats were randomly divided into four groups, each consisting of six rats. Each rat was anesthetized, and the right femoral artery was cannulated using a polyethylene tube. Crystalline OLA, amorphous OLA, Kollidon VA64-based OLA-SD (F1), and HPMC P645-based OLA-SD (F3) were dispersed in 1 mL of 0.5% carboxymethyl cellulose and administered orally to the rats at a dose of 20 mg/kg. Blood (350 μL) was collected through the cannulated tube at 0.25, 0.5, 1, 2, 3, 6, 9, 12, and 24 h and immediately centrifuged at 13,500 rpm for 15 min at 4 °C. Subsequently, plasma was separated from the supernatant and stored at −20 °C until quantitative analysis. To analyze the plasma samples, 50 μL of internal standard solution (canagliflozin 20 μg/mL in acetonitrile) and 300 μL of acetonitrile were added to 150 μL of plasma. The samples were then mixed in a vortex blender for 3 min for deproteinization and drug extraction. Subsequently, the samples were centrifuged at 13,500 rpm for 15 min at 4 °C. The supernatant was filtered using a 0.2 μm filter and transferred to analytical vials for HPLC analysis. The concentration of OLA in plasma was analyzed using the second HPLC conditions mentioned in Section 2.2. Pharmacokinetic parameters calculated using non-compartmental analysis included the area under the plasma concentration–time curve from 0 to 24 h (AUC0–24), the maximum plasma concentration (Cmax), the time to reach maximum plasma concentration (Tmax), the elimination rate constant (Kel), the half-life (T1/2), and the mean residence time (MRT).
The formula for calculating AUC is as follows: AUC=∑i=1n−1(Ci+Ci+1)/2×[…] where Ci and Ci+1 are the concentration of the drug at consecutive time points, ti and ti+1 are the corresponding time points, and n is the number of measured data points.
The formula for calculating Cmax is as follows: Cmax=max(Ct) where Ct is the concentration of the drug at time t.
The formula for calculating Tmax is Tmax=t at which Ct is maximal
The formula for calculating Kel is […] where C1 and C2 are the concentration of the drug at two consecutive time points during the elimination phase, and t1 and t2 are the corresponding time points.
The formula for calculating T1/2 is T1/2=ln2/Kel where Kel is the elimination rate constant.
The formula for calculating MRT is MRT=AUMC/AUC where AUMC is the area under the moment curve and AUC is the area under the curve.

Series [5] is described as follows: Saturation solubility of crystalline OLA in 1% (w/v) polymer solutions. The series is classed as physicochemical. The note with it: 37 °C. The procedure:
as §1

For series [6] the following is noted: cited from earlier work.
The mark [7] stands for this setting: male, Sprague Dawley, rat, plasma, po, mean ± S.D. (n = 6).

As for `O=C(c1cc(Cc2n[nH]c(=O)c3ccccc23)ccc1F)N1CCN(C(=O)C2CC2)CC1` [Amorphous OLA, olaparib], in series [1] (72 h), the saturation solubility result is “around 100 µg/mL”. For the same molecule, the solubility (kinetic) at 1 h was 337 ± 29.7 µg/mL (≈ 775 µM) in series [2] (1% (w/v) HP-β-CD solution, aqueous with cosolvent or surfactant or cyclodextrin, 1% (w/v) HP-β-CD, 37 °C, read-out: kinetic solubility in HP-β-CD at 1 h); 247 ± 43.6 µg/mL (≈ 569 µM) in series [2] (1% (w/v) HPMC P645 solution, 1% (w/v) HPMC P645, 37 °C, read-out: kinetic solubility in HPMC P645 at 1 h); 593 ± 72.9 µg/mL (≈ 1360 µM) in series [2] (1% (w/v) Kollidon VA64 solution, 1% (w/v) Kollidon VA64, 37 °C, read-out: kinetic solubility in Kollidon VA64 at 1 h). Besides, the kinetic solubility at 72 h in series [2] (1% (w/v) HP-β-CD solution, aqueous with cosolvent or surfactant or cyclodextrin, 1% (w/v) HP-β-CD, 37 °C, read-out: kinetic solubility in HP-β-CD at 72 h) was 398 ± 10.9 µg/mL (≈ 916 µM); in series [2] (1% (w/v) HPMC P645 solution, 1% (w/v) HPMC P645, 37 °C, read-out: kinetic solubility in HPMC P645 at 72 h), 353 ± 44.2 µg/mL (≈ 813 µM); in series [2] (1% (w/v) Kollidon VA64 solution, 1% (w/v) Kollidon VA64, 37 °C, read-out: kinetic solubility in Kollidon VA64 at 72 h), 343 ± 6.5 µg/mL (≈ 790 µM). For the same molecule, the dissolution rate is 43.4 ± 3.3% in series [3] (pH 1.2, 1 h); 28.2 ± 3.9% in series [3] (pH 1.2, 72 h); 44.6 ± 3.1% in series [3] (pH 6.8, 1 h); 27.0 ± 3.0% in series [3] (pH 6.8, 72 h). The AUC0–24 is 471 ± 150 ng·h/mL in series [4] and 471.40 ± 150.17 ng·h/mL in series [4] (mean ± S.D. (n = 6)). Moreover, the figures for the peak concentration (Cmax) in series [4] and in series [4] (mean ± S.D. (n = 6)) were 415 ± 148 ng/mL and 415.24 ± 148.20 ng/mL, respectively. Moreover, in series [4] (compared to crystalline OLA), the “increase of AUC0–24 over crystalline OLA” value was found to be 1.27 fold. Also, the “increase of Cmax over crystalline OLA” value in series [4] (compared to crystalline OLA) is listed as 2.22 fold. For the same molecule, the Kel in series [4] (mean ± S.D. (n = 6)) came to 0.20 ± 0.05 h⁻¹. The molecule further yielded a mean residence time MRT in series [4] (mean ± S.D. (n = 6)) of 4.28 ± 4.52 h. The T1/2 in series [4] (mean ± S.D. (n = 6)) is recorded as 3.68 ± 1.04 h. Further, the time to peak (Tmax) in series [4] (mean ± S.D. (n = 6)) was 0.29 ± 0.10 h.

Take `O=C(c1cc(Cc2n[nH]c(=O)c3ccccc23)ccc1F)N1CCN(C(=O)C2CC2)CC1` [Crystalline OLA, olaparib]: the solubility at 72 h in series [1] (aqueous pH solutions) is approximately 100 µg/mL (≈ 230 µM); in series [5] (crystalline OLA in 1% (w/v) HP-β-CD solution, read-out: saturation solubility in HP-β-CD) it was approximately 180 µg/mL (≈ 414 µM); in series [5] (crystalline OLA in 1% (w/v) polymer solutions other than HP-β-CD, read-out: saturation solubility in most other polymer solutions), less than 150 µg/mL. Further, the half-life in series [4] (setting [7]) is 4.18 ± 2.27 h. For the same molecule, the k el in series [4] (setting [7]) is 5.28e-05 s⁻¹. Also, the AUC(0-t) in series [4] (setting [7]) came out at 370 ± 63.8 ng·h/mL; in series [4] (male, Sprague Dawley, rat, plasma, po), 370 ± 63.8 ng·h/mL. The MRT in series [4] (male, Sprague Dawley, rat, plasma, po, mean ± S.D. (n = 6), read-out: MRT) was determined as 2.97 ± 0.69 h. In addition, the Cmax in series [4] is 187 ± 82.5 ng/mL; in series [4] (mean ± S.D. (n = 6)) it was 187.31 ± 82.55 ng/mL. Also, the Tmax in series [4] (mean ± S.D. (n = 6)) was 0.63 ± 0.31 h. In addition, the “solubility in aqueous solution” value in series [6] (aqueous solution) was “approximately 0.1 mg/mL”. Moreover, the “basic pKa” value in series [6] is −1.25. The “Biopharmaceutics Classification System (BCS) class” value in series [6] (low solubility and low permeability) is given as “class IV”.
